# “Also recorded” adds a separate entry of the source.
# Tests used:
# Type in all cases: cell-based
# [1] = target: T1, farnesyl transferase (Homo sapiens, UniProt P49354+P49356); test: Farnesyl transferase inhibition assay (EGFP-RasF membrane localization by fluorescence microscopy)
# T1 construct: endogenous in cells; host or cells: K562 cells transduced with LNC-EGFP-RasF reporter
# Experimental: The idea was to target EGFP to the plasma membrane by using a farnesylation signal sequence. […] The last 20 amino acids of c-Ha-Ras provides farnesylation and palmitoylation for targeting the Ras protein to the plasma membrane. We fused the C-terminal membrane targeting signal sequence of the human c-Ha-ras1 (J00277, NCBI) to the C-terminal end of EGFP (Clontech).
# Twenty amino acids of the C-terminal end of c-Ha-ras 1 located in exon 4 were added to the C-terminus of the EGFP coding sequence by polymerase chain reaction (PCR) cloning.
# The amphotropic packaging cell line PT67 (Clontech) was transfected (Pfx-2, Invitrogen) with pLNC-EGFP-(DEVD)-RasF and selected in 400 μg/ml G418. […] Gene transfer referred to as transduction in K562 and MT4 cells was easily observed by fluorescence microscopy.
# (§1) K562 (MT4) cells were separated from PT67-pLNC-EGFP-(DEVD)-RasF and Non transduced K562 (MT4) cells were removed by selection in 400 μg/ml G418. The remaining fluorescent K562 (MT4) cells were directly cloned in 96 well plates by fluorescence activated cell sorting using an automatic cell deposit unit. […] Two weeks later, appropriate clones were selected by visual inspection using a fluorescence microscope and designated K562-LNC-EGFP-RasF or MT4-LNC-EGFP-(DEVD)-RasF. […]
# In cells expressing EGFP without a farnesylation signal sequence, fluorescence is observed throughout the cell. […]
# [2] = test system: caspase 3; test: Caspase 3 activity with fluorogenic Ac-DEVD-AMC substrate; conditions: MT4 cells, Ac(N-acetyl)-DEVD-AMC substrate, results not shown
# [3] = test system: caspase 3 and/or caspase 7; test: Caspase assay (EGFP-DEVD-RasF membrane targeting by fluorescence microscopy); conditions: MT4-LNC-EGFP-DEVD-RasF cells, 10 μM, 4 h, FIG. 3B
# Experimental: For the apoptosis construct, the same primer was used except that a sequence encoding DEVD (i.e. caspase 3 and 7 cleavage site) was included between EGFP and the Ras plasmamembrane targeting signal sequence (SEQ ID NO 4 and SEQ ID NO 5).
# (§2) The amphotropic packaging cell line PT67 (Clontech) was transfected (Pfx-2, Invitrogen) with pLNC-EGFP-(DEVD)-RasF and selected in 400 μg/ml G418. In the surviving colonies, transcription occurs from (a) stably integrated plasmid(s) pLNC-EGFP-(DEVD)RasF. The resulting LNC-EGFP-(DEVD)-RasF mRNA is translated into EGFP-(DEVD)-RasF and the neomycin resistance protein and is also packaged into replication incompetent virions. […] Gene transfer referred to as transduction in K562 and MT4 cells was easily observed by fluorescence microscopy.
# as §1
# [4] = test system: MT4-LNC-EGFP-RasF cells; test: Control without DEVD cleavage site (EGFP-RasF membrane targeting by fluorescence microscopy); conditions: 4 h, FIG. 4B
# Experimental: as §2, with “virions. Thus, the PT67-pLNC-EGFP-(DEVD)-RasF constitutively produces viral particles, able to transmit the EGFP-(DEVD)-RasF and the neomycin resistance gene at the same time. These amphotropic virions give the flexibility to rapidly develop novel cell lines stably expressing EGFP-(DEVD)-RasF proteins.” for “virions.”
# as §1
"EGFP membrane localization ([1]; K562 LNC-EGFP-RasF cells, 5 μM, FIG. 2)","EGFP compartmentalisation ([1]; K562 cells, high enough concentrations (>5 μM))",SMILES,caspase 3 activity [2],EGFP membrane targeting [3],translocation of EGFP ([4]; MT4-LNC-EGFP-RasF cells lacking DEVD site),cell morphology ([4]; MT4-LNC-EGFP-RasF cells)
disruption of membrane localization,almost completely disappears,CSCC[C@H](NC(=O)c1ccc(NC[C@@H](N)CS)cc1-c1ccccc1)C(=O)O [FTI-276],,,,
,,CN[C@@H]1C[C@H]2O[C@@](C)([C@@H]1OC)n1c3ccccc3c3c4c(c5c6ccccc6n2c5c31)C(=O)NC4 [staurosporin],induced caspase 3 activity,partially disappears; also recorded: reduced EGFP membrane targeting,no prominent translocation of EGFP occurs; also recorded: did not result in marked translocation of EGFP,affects the cells morphology within hours; also recorded: altered cell morphology

# From patent US7129036B1, “Reporter molecules and methods for assaying the lipidations status of a cell” (Tibotec BVBA, priority 1999, dated 2006)
